Read-outs that look alike come from different tables or passages of the source.
Columns and labels:
[1] = tested on: H2O2 induced pAkt in D-U937 cells; test: PI3Kδ Cell Based Assay (H2O2 induced pAkt); conditions: Homo sapiens
Procedure, shortened: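 Read-out is the pAkt/total Akt signal ratio, measured with anti-pAkt and anti-pan-Akt antibodies after H2O2 stimulation. Cells were U937 monocytes given PMA (100 ng/mL) for 48 to 72 hr. IC50 values fitted from compound serial dilutions.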

[2] = tested on: PMA-differentiated U937 cells; test: MTT Assay (cell viability); format: cell-based, Human; conditions: percentage loss of cell viability; for Cell Viability MTT Assay in D-U937 cells at 4 hr: 4 hr in 5% FCS; for Cell Viability MTT Assay in D-U937 cells at 24 hr: 24 hr in 10% FCS
Procedure, shortened: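 Differentiated U937 cells treated with compound for 4 hr (5% FCS) or 24 hr (10% FCS), then given MTT for 1 hr; formazan dissolved in DMSO and absorbance read at 550 nm. Viability loss expressed as % versus 0.5% DMSO vehicle.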

recombinant PI3 kinase δ = recombinant PI3 kinase δ (Homo sapiens (Human), UniProt O00329); test: Enzyme Inhibition Assay (HTRF PI3K enzyme assay, TR-FRET); format: biochemical
recombinant PI3 kinase δ, sequence (O00329 whole entry, the tested form may be a part): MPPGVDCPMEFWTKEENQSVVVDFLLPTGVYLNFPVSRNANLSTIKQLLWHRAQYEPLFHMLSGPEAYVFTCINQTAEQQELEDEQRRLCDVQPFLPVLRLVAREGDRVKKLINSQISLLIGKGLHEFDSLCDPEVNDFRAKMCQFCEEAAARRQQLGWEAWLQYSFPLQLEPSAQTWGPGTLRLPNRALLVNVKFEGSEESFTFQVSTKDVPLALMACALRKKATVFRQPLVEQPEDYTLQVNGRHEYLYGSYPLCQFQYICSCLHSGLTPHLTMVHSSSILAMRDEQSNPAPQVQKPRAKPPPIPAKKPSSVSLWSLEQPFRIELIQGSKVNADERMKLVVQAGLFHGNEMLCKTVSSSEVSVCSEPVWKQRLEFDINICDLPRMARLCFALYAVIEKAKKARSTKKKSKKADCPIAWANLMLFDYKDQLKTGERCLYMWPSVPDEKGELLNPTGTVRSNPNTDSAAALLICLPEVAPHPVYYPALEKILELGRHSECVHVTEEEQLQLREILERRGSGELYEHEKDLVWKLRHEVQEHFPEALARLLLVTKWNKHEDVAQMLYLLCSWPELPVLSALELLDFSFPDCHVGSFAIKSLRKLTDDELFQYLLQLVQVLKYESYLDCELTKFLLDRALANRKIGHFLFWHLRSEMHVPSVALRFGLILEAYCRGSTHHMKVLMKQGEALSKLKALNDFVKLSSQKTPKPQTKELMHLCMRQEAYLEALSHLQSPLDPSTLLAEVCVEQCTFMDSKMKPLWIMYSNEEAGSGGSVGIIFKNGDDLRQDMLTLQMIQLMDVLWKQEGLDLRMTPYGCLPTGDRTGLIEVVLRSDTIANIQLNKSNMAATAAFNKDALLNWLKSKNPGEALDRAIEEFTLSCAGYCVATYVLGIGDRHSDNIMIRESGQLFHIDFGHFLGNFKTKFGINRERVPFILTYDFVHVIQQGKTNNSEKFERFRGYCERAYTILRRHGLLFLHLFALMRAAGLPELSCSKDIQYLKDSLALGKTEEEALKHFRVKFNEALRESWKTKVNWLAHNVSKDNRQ
recombinant PI3 kinase δ, sequence (P27986 whole entry partner, the tested form may be a part): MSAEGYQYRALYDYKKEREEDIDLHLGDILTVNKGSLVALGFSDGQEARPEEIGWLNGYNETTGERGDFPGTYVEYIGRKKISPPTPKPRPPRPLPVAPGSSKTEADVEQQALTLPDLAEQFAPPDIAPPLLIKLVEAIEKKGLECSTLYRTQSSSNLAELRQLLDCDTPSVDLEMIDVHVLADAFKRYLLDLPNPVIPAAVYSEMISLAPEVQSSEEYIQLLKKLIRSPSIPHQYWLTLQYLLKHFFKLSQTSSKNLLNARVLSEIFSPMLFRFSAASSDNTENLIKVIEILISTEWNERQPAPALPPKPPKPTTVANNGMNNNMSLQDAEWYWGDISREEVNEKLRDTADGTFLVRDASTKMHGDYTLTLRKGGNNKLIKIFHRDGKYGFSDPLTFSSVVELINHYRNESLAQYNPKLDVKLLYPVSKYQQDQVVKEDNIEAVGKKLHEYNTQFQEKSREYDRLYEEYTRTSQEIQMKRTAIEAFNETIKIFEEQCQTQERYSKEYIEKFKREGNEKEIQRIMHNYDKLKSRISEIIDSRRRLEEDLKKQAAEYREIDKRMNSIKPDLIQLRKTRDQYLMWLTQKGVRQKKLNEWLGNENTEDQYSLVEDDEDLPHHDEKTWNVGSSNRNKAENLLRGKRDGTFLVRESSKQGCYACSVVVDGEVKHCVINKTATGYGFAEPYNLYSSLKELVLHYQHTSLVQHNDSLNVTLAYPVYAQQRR
Procedure, shortened: (§1)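 TR-FRET readout after 15-18 hr at RT with biotinylated PIP3, GST-tagged GRP1 PH domain and europium/APC fluorophores; product PIP3 displaces the tracer and lowers the signal. Beforehand, compound and PIP2 were reacted for 2 hr at RT with human recombinant PI3Kα, δ or γ.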

recombinant PI3 kinase γ = recombinant PI3 kinase γ (Homo sapiens (Human), UniProt P48736); test: as above; format: biochemical
recombinant PI3 kinase γ, sequence (P48736 whole entry): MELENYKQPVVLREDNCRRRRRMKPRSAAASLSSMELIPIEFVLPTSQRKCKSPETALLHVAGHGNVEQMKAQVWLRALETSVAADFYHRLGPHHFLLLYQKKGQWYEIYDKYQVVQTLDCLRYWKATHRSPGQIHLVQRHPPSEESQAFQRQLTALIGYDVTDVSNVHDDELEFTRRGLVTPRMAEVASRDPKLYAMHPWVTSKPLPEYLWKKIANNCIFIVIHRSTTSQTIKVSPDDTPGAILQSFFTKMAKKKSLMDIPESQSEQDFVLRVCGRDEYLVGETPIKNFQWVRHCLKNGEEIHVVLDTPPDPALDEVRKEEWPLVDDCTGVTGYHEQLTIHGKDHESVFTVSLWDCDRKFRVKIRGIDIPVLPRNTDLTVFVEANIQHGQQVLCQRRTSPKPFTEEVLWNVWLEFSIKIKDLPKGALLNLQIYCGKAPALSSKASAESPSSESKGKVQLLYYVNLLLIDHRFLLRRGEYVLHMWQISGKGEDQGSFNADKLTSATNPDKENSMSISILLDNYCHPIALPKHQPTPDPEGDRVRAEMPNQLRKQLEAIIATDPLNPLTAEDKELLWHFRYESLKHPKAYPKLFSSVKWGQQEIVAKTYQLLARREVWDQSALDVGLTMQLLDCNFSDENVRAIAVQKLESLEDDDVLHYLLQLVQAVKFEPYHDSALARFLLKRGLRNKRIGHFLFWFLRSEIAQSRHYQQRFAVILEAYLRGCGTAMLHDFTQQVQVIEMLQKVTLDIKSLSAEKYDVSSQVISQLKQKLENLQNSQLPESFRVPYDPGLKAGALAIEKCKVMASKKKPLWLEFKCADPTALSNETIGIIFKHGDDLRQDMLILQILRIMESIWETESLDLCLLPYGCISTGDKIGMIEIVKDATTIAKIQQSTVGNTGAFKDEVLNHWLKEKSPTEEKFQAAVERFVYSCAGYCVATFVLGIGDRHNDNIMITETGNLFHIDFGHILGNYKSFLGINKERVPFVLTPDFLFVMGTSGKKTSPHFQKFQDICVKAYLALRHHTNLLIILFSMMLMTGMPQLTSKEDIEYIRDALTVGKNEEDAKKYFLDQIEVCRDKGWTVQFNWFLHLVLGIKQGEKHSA
Procedure, shortened: as §1

recombinant PI3 kinase α = recombinant PI3 kinase α (Homo sapiens (Human), UniProt P42336); test: as above; format: biochemical
recombinant PI3 kinase α, sequence (P42336 whole entry): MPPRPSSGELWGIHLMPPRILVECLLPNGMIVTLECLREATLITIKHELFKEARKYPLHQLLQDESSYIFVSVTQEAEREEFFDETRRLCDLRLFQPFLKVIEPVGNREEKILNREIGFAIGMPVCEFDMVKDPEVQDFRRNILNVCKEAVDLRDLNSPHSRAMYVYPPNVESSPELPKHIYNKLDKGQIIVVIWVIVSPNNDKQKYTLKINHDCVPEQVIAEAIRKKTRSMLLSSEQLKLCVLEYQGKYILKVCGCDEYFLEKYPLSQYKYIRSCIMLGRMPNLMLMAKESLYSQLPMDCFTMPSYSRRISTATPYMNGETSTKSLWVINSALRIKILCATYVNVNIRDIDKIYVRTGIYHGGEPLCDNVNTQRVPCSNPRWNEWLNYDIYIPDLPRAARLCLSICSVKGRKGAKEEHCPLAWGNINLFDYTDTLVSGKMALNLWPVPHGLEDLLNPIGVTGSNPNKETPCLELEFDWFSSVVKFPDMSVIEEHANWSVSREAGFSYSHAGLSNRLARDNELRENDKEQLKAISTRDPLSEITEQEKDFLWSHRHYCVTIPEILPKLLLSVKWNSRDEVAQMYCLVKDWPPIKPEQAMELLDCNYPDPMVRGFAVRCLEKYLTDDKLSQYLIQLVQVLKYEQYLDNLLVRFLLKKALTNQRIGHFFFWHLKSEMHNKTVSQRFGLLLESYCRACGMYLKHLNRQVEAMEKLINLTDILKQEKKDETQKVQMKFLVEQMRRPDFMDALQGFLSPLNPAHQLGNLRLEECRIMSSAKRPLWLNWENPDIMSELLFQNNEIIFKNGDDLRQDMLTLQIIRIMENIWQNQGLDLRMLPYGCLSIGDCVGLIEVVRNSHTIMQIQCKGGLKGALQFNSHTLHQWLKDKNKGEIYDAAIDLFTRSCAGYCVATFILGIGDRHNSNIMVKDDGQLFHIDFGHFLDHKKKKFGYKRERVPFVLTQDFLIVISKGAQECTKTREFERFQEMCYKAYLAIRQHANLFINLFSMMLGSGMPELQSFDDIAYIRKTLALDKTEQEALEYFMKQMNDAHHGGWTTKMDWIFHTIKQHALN
recombinant PI3 kinase α, sequence (P27986 whole entry partner): as the sequence (P27986 whole entry partner, the tested form may be a part) above
Procedure, shortened: as §1

[3] = Stereochemical analysis by chiral stationary phase HPLC (atropisomerism); format: physicochemical; conditions: chiral stationary phase HPLC (16 different conditions for the examples)
Method: Each of these mobile phase are compatible with the column packings referred to above, providing sixteen different solvent and stationary phase permutations. Modifiers such as triethylamine (0.1%), formic acid (0.1%) may be added to improve the resolution
Semi-preparative Chiral Stationary Phase LC-UV was performed on a Gilson preparative modular system using a Daicel Chiralpak AD semi-prep column ([…], 20×250 mm) and a flow rate of 18 mL/min eluting with an isocratic method over 20 min using […] heptane:IPA and 0.1% triethylamine employing an injection volume of 1.0 mL.

[4] = dU937, activity range, D-U937 cells, read-out: Cellular Activity IC50 values (H2O2 induced pAkt D-U937 Cells)
[5] = activity range, read-out: PI3 Kinase Inhibition IC50 values at stated Isozyme δ
[6] = activity range, read-out: PI3 Kinase Inhibition IC50 values at stated Isozyme γ
[7] = activity range, read-out: PI3 Kinase Inhibition IC50 values at stated Isozyme α
[8] = dU937, read-out: Cellular Activity IC50 values (H2O2 induced pAkt D-U937 Cells)

Compound: C#Cc1cccc2nc(Cn3nc(-c4ccc(O)cc4)c4c(N)ncnc43)n(Cc3cccc(OC)c3)c(=O)c12 [Example 14, 2-((4-Amino-3-(4-hydroxyphenyl)-1H-pyrazolo[3,4-d]pyrimidin-1-yl)methyl)-5-ethynyl-3-(3-methoxybenzyl)quinazolin-4(3H)-one]
- IC50 [1, 4]: < 10 nM
- Cell Viability MTT Assay in D-U937 cells at 4 hr [2]: − (− <30%)
- Cell Viability MTT Assay in D-U937 cells at 24 hr [2]: − (− <30%)
- IC50 (recombinant PI3 kinase δ; [5]): < 50 nM
- IC50 (recombinant PI3 kinase γ; [6]): 50 to 1000 nM
- IC50 (recombinant PI3 kinase α; [7]): 50 to 1000 nM
- atropisomerism by chiral stationary phase HPLC [3]: no evidence for atropisomerism was observed

Compound: C#Cc1cccc2nc(Cn3nc(-c4ccc(O)cc4)c4c(N)ncnc43)n(Cc3cc(C)on3)c(=O)c12 [Example 32, 2-((4-Amino-3-(4-hydroxyphenyl)-1H-pyrazolo[3,4-d]pyrimidin-1-yl)methyl)-5-ethynyl-3-((5-methylisoxazol-3-yl)methyl)quinazolin-4(3H)-one]
- IC50 [1, 4]: < 10 nM
- Cell Viability MTT Assay in D-U937 cells at 4 hr [2]: − (− <30%)
- Cell Viability MTT Assay in D-U937 cells at 24 hr [2]: − (− <30%)
- IC50 (recombinant PI3 kinase δ; [5]): < 50 nM
- IC50 (recombinant PI3 kinase γ; [6]): 50 to 1000 nM
- IC50 (recombinant PI3 kinase α; [7]): 50 to 1000 nM
- atropisomerism by chiral stationary phase HPLC [3]: no evidence for atropisomerism was observed

Compound: C#Cc1cccc2nc(Cn3nc(-c4cccc(O)c4)c4c(N)ncnc43)n(Cc3cccc(Cl)c3)c(=O)c12 [Example 10, 2-((4-Amino-3-(3-hydroxyphenyl)-1H-pyrazolo[3,4-d]pyrimidin-1-yl)methyl)-3-(3-chlorobenzyl)-5-ethynyl quinazolin-4(3H)-one]
- IC50 [1, 8]: < 10 nM
- Cell Viability MTT Assay in D-U937 cells at 4 hr [2]: − (− <30%)
- Cell Viability MTT Assay in D-U937 cells at 24 hr [2]: − (− <30%)
- IC50 (recombinant PI3 kinase δ; [5]): < 50 nM
- IC50 (recombinant PI3 kinase γ; [6]): 50 to 1000 nM
- IC50 (recombinant PI3 kinase α; [7]): 50 to 1000 nM
- atropisomerism by chiral stationary phase HPLC [3]: no evidence for atropisomerism was observed

Compound: C#Cc1cccc2nc(Cn3nc(-c4ccc(O)cc4)c4c(N)ncnc43)n(Cc3cccc(C(F)(F)F)c3)c(=O)c12 [Example 16, 2-((4-Amino-3-(4-hydroxyphenyl)-1H-pyrazolo[3,4-d]pyrimidin-1-yl)methyl)-5-ethynyl-3-(3-(trifluoromethyl)benzyl)quinazolin-4(3H)-one]
- IC50 [1, 4]: < 10 nM
- Cell Viability MTT Assay in D-U937 cells at 4 hr [2]: − (− <30%)
- Cell Viability MTT Assay in D-U937 cells at 24 hr [2]: − (− <30%)
- IC50 (recombinant PI3 kinase δ; [5]): < 50 nM
- IC50 (recombinant PI3 kinase γ; [6]): 50 to 1000 nM
- IC50 (recombinant PI3 kinase α; [7]): 50 to 1000 nM
- atropisomerism by chiral stationary phase HPLC [3]: no evidence for atropisomerism was observed

Compound: C#Cc1cccc2nc(Cn3nc(-c4cccc(O)c4)c4c(N)ncnc43)n(Cc3cccc(C#N)c3)c(=O)c12 [Example 24, 3-((2-((4-Amino-3-(3-hydroxyphenyl)-1H-pyrazolo[3,4-d]pyrimidin-1-yl)methyl)-5-ethynyl-4-oxoquinazolin-3(4H)-yl)methyl)benzonitrile]
- IC50 [1, 4]: < 10 nM
- Cell Viability MTT Assay in D-U937 cells at 4 hr [2]: − (− <30%)
- Cell Viability MTT Assay in D-U937 cells at 24 hr [2]: − (− <30%)
- IC50 (recombinant PI3 kinase δ; [5]): < 50 nM
- IC50 (recombinant PI3 kinase γ; [6]): 50 to 1000 nM
- IC50 (recombinant PI3 kinase α; [7]): 50 to 1000 nM
- atropisomerism by chiral stationary phase HPLC [3]: no evidence for atropisomerism was observed

Compound: C#Cc1cccc2nc(Cn3nc(-c4cccc(O)c4)c4c(N)ncnc43)n(Cc3cc(C)on3)c(=O)c12 [Example 31, 2-((4-Amino-3-(3-hydroxyphenyl)-1H-pyrazolo[3,4-d]pyrimidin-1-yl)methyl)-5-ethynyl-3-((5-methylisoxazol-3-yl)methyl)quinazolin-4(3H)-one]
- IC50 [1, 4]: < 10 nM
- Cell Viability MTT Assay in D-U937 cells at 4 hr [2]: − (− <30%)
- Cell Viability MTT Assay in D-U937 cells at 24 hr [2]: − (− <30%)
- IC50 (recombinant PI3 kinase δ; [5]): < 50 nM
- IC50 (recombinant PI3 kinase γ; [6]): 50 to 1000 nM
- IC50 (recombinant PI3 kinase α; [7]): 50 to 1000 nM
- atropisomerism by chiral stationary phase HPLC [3]: no evidence for atropisomerism was observed

Compound: C#Cc1cccc2nc(Cn3nc(-c4cccc(O)c4)c4c(N)ncnc43)n(Cc3cccc(C(F)(F)F)c3)c(=O)c12 [Example 17, 2-((4-Amino-3-(3-hydroxyphenyl)-1H-pyrazolo[3,4-d]pyrimidin-1-yl)methyl)-5-ethynyl-3-(3-(trifluoromethyl)benzyl)quinazolin-4(3H)-one]
- IC50 [1, 4]: < 10 nM
- Cell Viability MTT Assay in D-U937 cells at 4 hr [2]: − (− <30%)
- Cell Viability MTT Assay in D-U937 cells at 24 hr [2]: − (− <30%)
- IC50 (recombinant PI3 kinase δ; [5]): < 50 nM
- IC50 (recombinant PI3 kinase γ; [6]): > 1000 nM
- IC50 (recombinant PI3 kinase α; [7]): 50 to 1000 nM
- atropisomerism by chiral stationary phase HPLC [3]: no evidence for atropisomerism was observed

Compound: C#Cc1cccc2nc(Cn3nc(-c4ccc(O)cc4)c4c(N)ncnc43)n(Cc3ccccc3Cl)c(=O)c12 [Example 9, 2-((4-Amino-3-(4-hydroxyphenyl)-1H-pyrazolo[3,4-d]pyrimidin-1-yl)methyl)-3-(2-chlorobenzyl)-5-ethynyl quinazolin-4(3H)-one]
- IC50 [1, 8]: < 10 nM
- Cell Viability MTT Assay in D-U937 cells at 4 hr [2]: − (− <30%)
- Cell Viability MTT Assay in D-U937 cells at 24 hr [2]: − (− <30%)
- IC50 (recombinant PI3 kinase δ; [5]): < 50 nM
- IC50 (recombinant PI3 kinase γ; [6]): 50 to 1000 nM
- IC50 (recombinant PI3 kinase α; [7]): 50 to 1000 nM
- atropisomerism by chiral stationary phase HPLC [3]: no evidence for atropisomerism was observed

Compound: C#Cc1cccc2nc(Cn3nc(-c4cccc(O)c4)c4c(N)ncnc43)n(Cc3ccc(C(F)(F)F)cc3)c(=O)c12 [Example 21, 2-((4-Amino-3-(3-hydroxyphenyl)-1H-pyrazolo[3,4-d]pyrimidin-1-yl)methyl)-5-ethynyl-3-(4-(trifluoromethyl)benzyl)quinazolin-4(3H)-one]
- IC50 [1, 4]: < 10 nM
- Cell Viability MTT Assay in D-U937 cells at 4 hr [2]: − (− <30%)
- Cell Viability MTT Assay in D-U937 cells at 24 hr [2]: − (− <30%)
- IC50 (recombinant PI3 kinase δ; [5]): < 50 nM
- IC50 (recombinant PI3 kinase γ; [6]): 50 to 1000 nM
- IC50 (recombinant PI3 kinase α; [7]): 50 to 1000 nM
- atropisomerism by chiral stationary phase HPLC [3]: no evidence for atropisomerism was observed

Compound: C#Cc1cccc2nc(Cn3nc(-c4ccc(O)cc4)c4c(N)ncnc43)n(Cc3ccccc3F)c(=O)c12 [Example 13, 2-((4-Amino-3-(4-hydroxyphenyl)-1H-pyrazolo[3,4-d]pyrimidin-1-yl)methyl)-5-ethynyl-3-(2-fluorobenzyl) quinazolin-4(3H)-one]
- IC50 [1, 8]: < 10 nM
- Cell Viability MTT Assay in D-U937 cells at 4 hr [2]: − (− <30%)
- Cell Viability MTT Assay in D-U937 cells at 24 hr [2]: − (− <30%)
- IC50 (recombinant PI3 kinase δ; [5]): < 50 nM
- IC50 (recombinant PI3 kinase γ; [6]): 50 to 1000 nM
- IC50 (recombinant PI3 kinase α; [7]): 50 to 1000 nM
- atropisomerism by chiral stationary phase HPLC [3]: no evidence for atropisomerism was observed

Compound: C#Cc1cccc2nc(Cn3nc(-c4cccc(O)c4)c4c(N)ncnc43)n(Cc3ccccc3F)c(=O)c12 [Example 12, 2-((4-Amino-3-(3-hydroxyphenyl)-1H-pyrazolo[3,4-d]pyrimidin-1-yl)methyl)-5-ethynyl-3-(2-fluorobenzyl) quinazolin-4(3H)-one]
- IC50 [1, 8]: < 10 nM
- Cell Viability MTT Assay in D-U937 cells at 4 hr [2]: + (+ >30%)
- Cell Viability MTT Assay in D-U937 cells at 24 hr [2]: − (− <30%)
- IC50 (recombinant PI3 kinase δ; [5]): < 50 nM
- IC50 (recombinant PI3 kinase γ; [6]): 50 to 1000 nM
- IC50 (recombinant PI3 kinase α; [7]): 50 to 1000 nM
- atropisomerism by chiral stationary phase HPLC [3]: no evidence for atropisomerism was observed

Compound: C#Cc1cccc2nc(Cn3nc(-c4ccc(O)cc4)c4c(N)ncnc43)n(Cc3ccc(F)cc3)c(=O)c12 [Example 38, 2-((4-Amino-3-(4-hydroxyphenyl)-1H-pyrazolo[3,4-d]pyrimidin-1-yl)methyl)-5-ethynyl-3-(4-fluorobenzyl) quinazolin-4(3H)-one]
- IC50 [1, 4]: < 10 nM
- Cell Viability MTT Assay in D-U937 cells at 4 hr [2]: − (− <30%)
- Cell Viability MTT Assay in D-U937 cells at 24 hr [2]: − (− <30%)
- IC50 (recombinant PI3 kinase δ; [5]): < 50 nM
- IC50 (recombinant PI3 kinase γ; [6]): 50 to 1000 nM
- IC50 (recombinant PI3 kinase α; [7]): 50 to 1000 nM
- atropisomerism by chiral stationary phase HPLC [3]: no evidence for atropisomerism was observed

Compound: C#Cc1cccc2nc(Cn3nc(-c4cccc(O)c4)c4c(N)ncnc43)n(Cc3cccc(OC)c3)c(=O)c12 [Example 15, 2-((4-Amino-3-(3-hydroxyphenyl)-1H-pyrazolo[3,4-d]pyrimidin-1-yl)methyl)-5-ethynyl-3-(3-methoxybenzyl)quinazolin-4(3H)-one]
- IC50 [1, 4]: < 10 nM
- IC50 ([1]; dU937, read-out: Cellular Activity IC50 values (H2O2 induced pAkt (nM) D-U937 Cells)): 0.57 nM
- Cell Viability MTT Assay in D-U937 cells at 4 hr [2]: − (− <30%)
- Cell Viability MTT Assay in D-U937 cells at 24 hr [2]: − (− <30%)
- IC50 (recombinant PI3 kinase δ; [5]): < 50 nM
- IC50 (recombinant PI3 kinase δ; read-out: PI3 Kinase Inhibition IC50 values at stated Isozyme (nM) δ): 4 nM
- IC50 (recombinant PI3 kinase γ; [6]): 50 to 1000 nM
- IC50 (recombinant PI3 kinase γ; read-out: PI3 Kinase Inhibition IC50 values at stated Isozyme (nM) γ): 289 nM
- IC50 (recombinant PI3 kinase α; [7]): > 1000 nM
- IC50 (recombinant PI3 kinase α; read-out: PI3 Kinase Inhibition IC50 values at stated Isozyme (nM) α): 1970 nM
- atropisomerism by chiral stationary phase HPLC [3]: no evidence for atropisomerism was observed
